Reference: patent US10335365B2, “Bladder cancer specific ligand peptides” (The Regents of the University of California, priority 2009, dated 2019)
Positions of bridges follow the written chain, without caps; N, C: chain ends. Non-standard residues stand in square brackets, D forms with d. No end group written: not given here.

System: 5637 bladder cancer cells
Experiment: Alanine walk and X5 glycine addition, bead binding to 5637 cells
Design: species or system human
Conditions: compared with parental PLZ4
Description: FIG. 6A-C. Binding of PLZ4 to ανβ3 integrin A. PLZ4 binds to ανβ3 integrin. Beads coated with PLZ4 peptides were incubated with K562 cells transfected with different integrin subunits. PLZ4 can only bind to K562 cells when ανβ3 integrin is expressed on the surface. B. Alanine walk to determine the amino acids important for cell binding. Each amino acid in PLZ4 (SEQ ID NO: 5) was replaced with alanine one at a time to generate beads covered with new peptides (SEQ ID NOS 24-30, respectively, in order of appearance) (alanine walk), and tested for their binding to 5637 bladder cancer cells. Semi-quantitative system was used to determine binding activity: ++++ means very strong binding with 75-100% bead surface covered by cells; +++ means strong binding with 50-74% bead surface covered by cells; […] binding with 25-49% bead surface covered by cells; + means weak binding with 1-24% bead surface covered by cells; − means no binding. C. The effects of glycine residues at the X5 position on the binding of PLZ4 to bladder cancer cells. The peptides on beads in each panel have the same backbone sequence (cQDGRKGFc; SEQ ID NO:11) as PLZ4 (cQDGRMGFc; SEQ ID NO:12) except the M at the X5 position has been replaced with K. One (c) to six (h) numbers of glycine were conjugated to K from Panel c to h (SEQ ID NO:13). The OBOC beads were incubated with 5637 TCC cells. […]

cQDGRKGFc ([dC]QDGRKGF[dC]; disulfide 1-9) [PLZ4 backbone with the M at the X5 position replaced with K]
binding of modified peptides on beads to 5637 cells: no significant changes in binding
